The subject of the assay is 15LOX/PEBP1. As to the kind of experiment: Potency of 15LOX/PEBP1 inhibitors with anti-ferroptotic effect (Table 1). It counts as cell-based. The text has this:
Development and testing of new compounds that inhibit 15LOX/PEBP1 complex activity. A combination of computational and experimental studies are used. […] Computer modeling considers specific features of organization of 15LOX/PEBP1 complexes and positioning of AA-PE as well as regio-specific oxygenation of AA-residues at 15th carbon. […] It has been shown that: i) binding interface of 15LOX in 15LOX/PEBP1 complex includes a helix on 15LOX (α2) and kinase binding epitope (D144, H145, R146) on PEBP1 (FIG. 8); and ii) interfacial interactions play a pivotal role in allosterically altering conformational dynamics of 15LOX in complex, and its substrate specificity. Analysis of change in access to catalytic site upon PEBP1 binding, using elastic network models indicates needed sites at 15LOX/PEBP1 binding interface. Dynamics simulations are also performed, for 15LOX alone and 15LOX/PEBP1 complex. An effective inhibitor, NCG-01, with in vivo activity has been indicated. Several other 15LOX/PEBP1 inhibitors with anti-ferroptotic effect (FIG. 9) have been identified. To test the effectiveness of compounds identified from the computational screen, RSL3 and mechanical stretch models with LDH and PI assays as a primary outcome are performed. The compounds that inhibit cell death by at least 50% are then evaluated for their effects on AA-PE and AA oxidation by 15LOX/PEBP1 complex and 15LOX alone, respectively, by LC-MS. Evaluation of the effect of compounds in suppressing AA-PE-OOH formation in cells upon proferroptotic stimuli is also performed.
For the compound `FC(F)(F)c1ccc(-c2cn(-c3ccccc3)c(SCc3ccccc3)n2)cc1` [Compound 4, 2-(benzylthio)-1-phenyl-4-(4-(trifluoromethyl)phenyl)-1H-imidazole], the Potency entry was “+ (+ > 1 μM)”.
The entry for `FC(F)(F)c1ccc(CSc2nc(-c3ccc(C(F)(F)F)cc3)cn2-c2ccccc2)cc1` [Compound 6, 1-phenyl-2-((4-(trifluoromethyl)benzyl)thio)-4-(4-(trifluoromethyl)phenyl)-1H-imidazole] is “+ (+ > 1 μM)”.
The entry for `Fc1ccc(-n2cc(-c3ccccc3)nc2SCc2ccc(C(F)(F)F)cc2)cc1` [Compound 11, 1-(4-fluorophenyl)-4-phenyl-2-((4-(trifluoromethyl)benzyl)thio)-1H-imidazole] is “+ (+ > 1 μM)”; for `FC(F)(F)c1ccc(CSc2nc(-c3ccccc3)cn2-c2ccc(Cl)cc2)cc1` [Compound 13, 1-(4-chlorophenyl)-4-phenyl-2-((4-(trifluoromethyl)benzyl)thio)-1H-imidazole] it is “+ (+ > 1 μM)”.
As for `Fc1ccccc1-n1cc(-c2ccccc2)nc1SCc1ccc(C(F)(F)F)cc1` [Compound 14, 1-(2-fluorophenyl)-4-phenyl-2-((4-(trifluoromethyl)benzyl)thio)-1H-imidazole], the Potency entry is “+ (+ > 1 μM)”.
As to `Cc1ccc(-n2cc(-c3ccccc3)nc2SCc2ccc(C(F)(F)F)cc2)cc1` [Compound 16, 4-phenyl-1-(p-tolyl)-2-((4-(trifluoromethyl)benzyl)thio)-1H-imidazole], the Potency result is “+ (+ > 1 μM)”.
The entry for `FC(F)(F)c1ccc(CSc2nc(-c3ccccc3)cn2-c2cccc(Cl)c2)cc1` [Compound 17, 1-(3-chlorophenyl)-4-phenyl-2-((4-(trifluoromethyl)benzyl)thio)-1H-imidazole] is “+ (+ > 1 μM)”; for `FC(F)(F)c1ccc(CSc2nc(-c3ccccc3)cn2-c2ccccc2)cc1` [Compound 20, 1,4-diphenyl-2-((4-(trifluoromethyl)benzyl)thio)-1H-imidazole] it is “+ (+ > 1 μM)”; for `Fc1cc(F)cc(-n2cc(-c3ccccc3)nc2SCc2ccc(C(F)(F)F)cc2)c1` [Compound 21, 1-(3,5-difluorophenyl)-4-phenyl-2-((4-(trifluoromethyl)benzyl)thio)-1H-imidazole] it is “dead”.
The entry for `Cc1cccc(-n2cc(-c3ccccc3)nc2SCc2ccc(C(F)(F)F)cc2)c1` [Compound 22, 4-phenyl-1-(m-tolyl)-2-((4-(trifluoromethyl)benzyl)thio)-1H-imidazole] is “+ (+ > 1 μM)”; for `C[S+](=O)([O-])c1cccc(-n2cc(-c3ccccc3)nc2SCc2ccc(C(F)(F)F)cc2)c1` [Compound 23, 1-(3-(methylsulfonyl)phenyl)-4-phenyl-2-((4-(trifluoromethyl)benzyl)thio)-1H-imidazole] it is “+ (+ > 1 μM)”; for `FC(F)(F)c1ccc(CSc2nc(-c3ccccc3)cn2-c2cccc(Br)c2)cc1` [Compound 24, 1-(3-bromophenyl)-4-phenyl-2-((4-(trifluoromethyl)benzyl)thio)-1H-imidazole] it is “+ (+ > 1 μM)”.
Consider `FC(F)(F)c1ccc(CSc2nc(-c3ccccc3)cn2-c2cccc(C(F)(F)F)c2)cc1` [Compound 25, 4-phenyl-2-((4-(trifluoromethyl)benzyl)thio)-1-(3-(trifluoromethyl)phenyl)-1H-imidazole], for which the Potency result is reported as “+ (+ > 1 μM)”.
The entry for `Fc1cccc(-n2cc(-c3ccccc3)nc2SCc2ccc(C3(C(F)(F)F)N=N3)cc2)c1` [Compound 26, 1-(3-fluorophenyl)-4-phenyl-2-((4-(3-(trifluoromethyl)-3H-diazirin-3-yl)benzyl)thio)-1H-imidazole] is “+ (+ > 1 μM)”; for `Fc1cccc(-n2cc(-c3ccc(Br)cc3)nc2SCc2ccccc2)c1` [Compound 27, 2-(benzylthio)-4-(4-bromophenyl)-1-(3-fluorophenyl)-1H-imidazole] it is “+ (+ > 1 μM)”; for `FC(F)Oc1cccc(-n2cc(-c3ccccc3)nc2SCc2ccc(C(F)(F)F)cc2)c1` [Compound 28, 1-(3-(difluoromethoxy)phenyl)-4-phenyl-2-((4-(trifluoromethyl)benzyl)thio)-1H-imidazole] it is “+ (+ > 1 μM)”.
The entry for `COc1cccc(-n2cc(-c3ccccc3)nc2SCc2ccc(C(F)(F)F)cc2)c1` [Compound 29, 1-(3-methoxyphenyl)-4-phenyl-2-((4-(trifluoromethyl)benzyl)thio)-1H-imidazole] is “+ (+ > 1 μM)”; for `FC(F)(F)Oc1cccc(-n2cc(-c3ccccc3)nc2SCc2ccc(C(F)(F)F)cc2)c1` [Compound 30, 4-phenyl-1-(3-(trifluoromethoxy)phenyl)-2-((4-(trifluoromethyl)benzyl)thio)-1H-imidazole] it is “+ (+ > 1 μM)”; for `O=C(Nc1nc(-c2ccccc2)cn1-c1cccc(F)c1)c1ccc(C(F)(F)F)cc1` [Compound 31, N-(1-(3-fluorophenyl)-4-phenyl-1H-imidazol-2-yl)-4-(trifluoromethyl)benzamide] it is “+ (+ > 1 μM)”.
`Fc1cccc(-n2cc(-c3ccccc3)nc2NCc2ccc(C(F)(F)F)cc2)c1` [Compound 32, 1-(3-fluorophenyl)-4-phenyl-N-(4-(trifluoromethyl)benzyl)-1H-imidazol-2-amine]: the Potency entry is “++ (++ = 101-1000 nM)”.
The entry for `Cc1ccc(CSc2nc(-c3ccccc3)cn2-c2cccc(F)c2)cc1` [Compound 33, 1-(3-fluorophenyl)-2-((4-methylbenzyl)thio)-4-phenyl-1H-imidazole] is “+ (+ > 1 μM)”; for `Fc1cccc(-n2cc(-c3ccccc3)nc2SCc2ccc(Br)cc2)c1` [Compound 34, 2-((4-bromobenzyl)thio)-1-(3-fluorophenyl)-4-phenyl-1H-imidazole] it is “+ (+ > 1 μM)”.
Consider `Fc1cccc(-n2cc(-c3ccccc3)nc2SCc2cccc(C(F)(F)F)c2)c1` [Compound 35, 1-(3-fluorophenyl)-4-phenyl-2-((3-(trifluoromethyl)benzyl)thio)-1H-imidazole], for which the Potency result is “+ (+ > 1 μM)”.
The entry for `Fc1cccc(-n2cc(-c3ccccc3)nc2SCc2ccc(OC(F)(F)F)cc2)c1` [Compound 36, 1-(3-fluorophenyl)-4-phenyl-2-((4-(trifluoromethoxy)benzyl)thio)-1H-imidazole] is “+ (+ > 1 μM)”; for `Fc1cccc(-n2cc(-c3ccccc3)nc2SCc2ccccc2)c1` [Compound 37, 2-(benzylthio)-1-(3-fluorophenyl)-4-phenyl-1H-imidazole] it is “+ (+ > 1 μM)”.
The entry for `CC(Sc1nc(-c2ccccc2)cn1-c1cccc(F)c1)c1ccccc1` (centres unmarked) [Compound 38, 1-(3-fluorophenyl)-4-phenyl-2-((1-phenylethyl)thio)-1H-imidazole] is “+ (+ > 1 μM)”.
On to `Fc1cccc(-n2cc(-c3ccccc3)nc2SCc2cccc(Cl)c2)c1` [Compound 39, 2-((3-chlorobenzyl)thio)-1-(3-fluorophenyl)-4-phenyl-1H-imidazole], for which the Potency result was “+ (+ > 1 μM)”.
`CS(=O)(=O)c1ccc(CSc2nc(-c3ccccc3)cn2-c2cccc(F)c2)cc1` [Compound 40, 1-(3-fluorophenyl)-2-((4-(methylsulfonyl)benzyl)thio)-4-phenyl-1H-imidazole]: the Potency entry is “+ (+ > 1 μM)”.
The entry for `Fc1cccc(-n2cc(-c3ccccc3)nc2SCc2ccccc2C(F)(F)F)c1` [Compound 41, 1-(3-fluorophenyl)-4-phenyl-2-((2-(trifluoromethyl)benzyl)thio)-1H-imidazole] is “+ (+ > 1 μM)”.
The entry for `Fc1cccc(-n2cc(-c3ccccc3)nc2SCc2ccc(Cl)cc2)c1` [Compound 42, 2-((4-chlorobenzyl)thio)-1-(3-fluorophenyl)-4-phenyl-1H-imidazole] is “+ (+ > 1 μM)”.
For `Cc1cccc(CSc2nc(-c3ccccc3)cn2-c2cccc(F)c2)c1` [Compound 43, 1-(3-fluorophenyl)-2-((3-methylbenzyl)thio)-4-phenyl-1H-imidazole], the Potency entry is listed as “+ (+ > 1 μM)”.
Take `NS(=O)(=O)c1ccc(CSc2nc(-c3ccccc3)cn2-c2cccc(F)c2)cc1` [Compound 44, 4-(((1-(3-fluorophenyl)-4-phenyl-1H-imidazol-2-yl)thio)methyl)benzenesulfonamide]: the Potency entry is reported as “+ (+ > 1 μM)”.
The entry for `CC(C)(C)c1ccc(CSc2nc(-c3ccccc3)cn2-c2cccc(F)c2)cc1` [Compound 45, 2-((4-(tert-butyl)benzyl)thio)-1-(3-fluorophenyl)-4-phenyl-1H-imidazole] is “+ (+ > 1 μM)”.
The entry for `Fc1cccc(-n2cc(-c3ccccc3)nc2SCc2cccc(Br)c2)c1` [Compound 46, 2-((3-bromobenzyl)thio)-1-(3-fluorophenyl)-4-phenyl-1H-imidazole] is “+ (+ > 1 μM)”; for `CC(C)c1ccc(CSc2nc(-c3ccccc3)cn2-c2cccc(F)c2)cc1` [Compound 47, 1-(3-fluorophenyl)-2-((4-isopropylbenzyl)thio)-4-phenyl-1H-imidazole] it is “+ (+ > 1 μM)”.

(Values after patent publication US20240002350A1, “PROTEIN AND LIPID THERAPEUTIC TARGETS” (UNIVERSITY OF PITTSBURGH-OF THE COMMONWEALTH SYSTEM OF …, priority 2020, published 2024).)
